Results taken from ChEMBL document CHEMBL1131273, “Unsymmetric nonpeptidic HIV protease inhibitors containing anthranilamide as a P2' ligand” (Bioorg Med Chem Lett, 1998).

Key:
[1] = biological target: Human immunodeficiency virus type 1 protease (Human immunodeficiency virus 1, UniProt Q72874); experiment: Inhibitory activity against HIV protease
[2] = tested on: CCRF-CEM; experiment: Antiviral activity against HIV-I 3b in CEM cells; No activity; format: functional, cell-based, Homo sapiens
[3] = tested on: CCRF-CEM; experiment: Antiviral activity against HIV-I 3b in CEM cells; format: functional, cell-based; conditions: Homo sapiens
[4] = Oral bioavailability in rat; format: ADME, organism-based; conditions: in vivo
[5] = Biological half-life was measured in plasma of rats; format: ADME, organism-based; conditions: rat
[6] = Maximum plasma concentration of compound present in rats at the dose of 37 mg/kg in 15 min; format: ADME, organism-based; design: dose 37 mg/kg; conditions: rat
[7] = biological target: Human immunodeficiency virus type 1 protease (Human immunodeficiency virus 1) (UniProt Q72874); experiment: Compound was tested for inhibitory activity against HIV protease; conditions: concentration not given here
[8] = Ratio Cmax/EC50 was determined; format: functional
[9] = Maximum plasma concentration of compound present in rats at the dose of 38 mg/kg in 15 min; format: ADME, organism-based; design: dose 38 mg/kg; conditions: rat
[10] = tested on: CCRF-CEM; experiment: Compound was tested for cellular toxicity against CEM cell line; format: functional, cell-based; conditions: Homo sapiens

Row | Structure (SMILES) | Ki [1] | EC50 [3] | other results
1 | O=C(Nc1ccccc1C(=O)N[C@@H](Cc1ccccc1)[C@H](O)[C@H](O)[C@H](Cc1ccccc1)NC(=O)c1cccc(O)c1)OCc1ccccn1 | 0.5 nM | – | EC50 [2]: Not Active
2 | Nc1cccc(C(=O)N[C@@H](Cc2ccccc2)[C@@H](O)C[C@H](Cc2ccccc2)NC(=O)c2ccccc2NC(=O)OCc2ccccn2)c1 | 0.4 nM | 250 nM | –
3 | O=C(Nc1ccccc1C(=O)N[C@@H](Cc1ccccc1)[C@@H](O)[C@@H](O)[C@H](Cc1ccccc1)NC(=O)c1cccc(O)c1)OCc1ccccn1 | 1.7 nM | 900 nM | –
4 | Cc1c(O)cccc1C(=O)N[C@@H](Cc1ccccc1)[C@@H](O)C[C@H](Cc1ccccc1)NC(=O)c1ccccc1NC(=O)OCc1ccccn1 | 0.06 nM | 30 nM | bioavailability [4]: 1%; half-life [5]: 2.22 h; Cmax [6]: 30 nM
5 | O=C(Nc1ccccc1C(=O)N[C@@H](Cc1ccccc1)C[C@H](O)[C@H](Cc1ccccc1)NC(=O)OCc1cscn1)OCc1ccccn1 | 0.62 nM | 600 nM | –
6 | Nc1ccc(C(=O)N[C@@H](Cc2ccccc2)[C@H](O)[C@H](O)[C@H](Cc2ccccc2)NC(=O)c2ccccc2NC(=O)OCc2ccccn2)cc1 | 6.6 nM | – | EC50 [2]: Not Active
7 | O=C(Nc1ccccc1C(=O)N[C@@H](Cc1ccccc1)[C@@H](O)C[C@H](Cc1ccccc1)NC(=O)c1cccc(O)c1)OCc1ccccn1 | 8.6 nM | > 10000 nM | –
8 | Cc1nc(C(=O)N[C@@H](Cc2ccccc2)[C@@H](O)C[C@H](Cc2ccccc2)NC(=O)c2ccccc2NC(=O)OCc2ccccn2)cs1 | – | > 10000 nM | inhibition [7]: 61%
9 | O=C(Nc1ccccc1C(=O)N[C@@H](Cc1ccccc1)C[C@H](O)[C@H](Cc1ccccc1)NC(=O)OCc1cncs1)OCc1ccccn1 | 0.03 nM | 200 nM | Ratio [8]: > 30; bioavailability [4]: 30%; half-life [5]: 8 h
10 | O=C(Nc1ccccc1C(=O)N[C@@H](Cc1ccccc1)C[C@H](O)[C@H](Cc1ccccc1)NC(=O)O[C@@H]1CCOC1)OCc1ccccn1 | 0.04 nM | 30 nM | Cmax [9]: 1040 nM; bioavailability [4]: 6%
11 | CC(C)(C)OC(=O)N[C@@H](Cc1ccccc1)[C@H](O)[C@H](O)[C@H](Cc1ccccc1)NC(=O)c1ccccc1NC(=O)OCc1ccccn1 | 0.45 nM | 490 nM | IC50 [10]: 21000 nM
12 | CC(C)(C)OC(=O)N[C@@H](Cc1ccccc1)[C@@H](O)[C@@H](O)[C@H](Cc1ccccc1)NC(=O)c1ccccc1NC(=O)OCc1ccccn1 | 0.13 nM | 400 nM | –
13 | CC(C)(C)OC(=O)N[C@@H](Cc1ccccc1)C[C@H](O)[C@H](Cc1ccccc1)NC(=O)c1ccccc1NC(=O)OCc1ccccn1 | 0.85 nM | 490 nM | –
14 | O=C(Nc1ccccc1C(=O)N[C@@H](Cc1ccccc1)C[C@H](O)[C@H](Cc1ccccc1)NC(=O)c1ccno1)OCc1ccccn1 | 1.2 nM | 2000 nM | –
15 | Cc1c(O)cccc1C(=O)N[C@@H](Cc1ccccc1)C[C@H](O)[C@H](Cc1ccccc1)NC(=O)c1ccccc1NC(=O)OCc1ccccn1 | 0.68 nM | > 1000 nM | –
16 | O=C(Nc1ccccc1C(=O)N[C@@H](Cc1ccccc1)C[C@H](O)[C@H](Cc1ccccc1)NC(=O)OCc1cccnc1)OCc1ccccn1 | 0.01 nM | 350 nM | –
17 | O=C(Nc1ccccc1C(=O)N[C@@H](Cc1ccccc1)[C@H](O)[C@H](O)[C@H](Cc1ccccc1)NC(=O)c1ccccc1NC(=O)OCc1ccccn1)OCc1ccccn1 | 0.07 nM | 60 nM | –
18 | O=C(Nc1ccccc1C(=O)N[C@@H](Cc1ccccc1)[C@H](O)[C@H](O)[C@H](Cc1ccccc1)NC(=O)O[C@@H]1CCOC1)OCc1ccccn1 | 0.07 nM | 60 nM | –
19 | CC(C)(C)OC(=O)N[C@@H](Cc1ccccc1)[C@@H](O)C[C@H](Cc1ccccc1)NC(=O)c1ccccc1NC(=O)OCc1ccccn1 | 0.13 nM | 600 nM | –
20 | Cc1c(N)cccc1C(=O)N[C@@H](Cc1ccccc1)[C@@H](O)C[C@H](Cc1ccccc1)NC(=O)c1ccccc1NC(=O)OCc1ccccn1 | 0.12 nM | 60 nM | bioavailability [4]: < 2%
21 | O=C(Nc1ccccc1C(=O)N[C@@H](Cc1ccccc1)[C@H](O)[C@H](O)[C@H](Cc1ccccc1)NC(=O)c1ccno1)OCc1ccccn1 | 0.4 nM | 800 nM | –
22 | Cc1ccccc1C(=O)N[C@@H](Cc1ccccc1)[C@@H](O)C[C@H](Cc1ccccc1)NC(=O)c1ccccc1NC(=O)OCc1ccccn1 | 0.27 nM | 500 nM | –
23 | O=C(Nc1ccccc1C(=O)N[C@@H](Cc1ccccc1)C[C@H](O)[C@H](Cc1ccccc1)NC(=O)c1cscn1)OCc1ccccn1 | 4.7 nM | 3000 nM | –
24 | Nc1ccc(C(=O)N[C@@H](Cc2ccccc2)[C@@H](O)C[C@H](Cc2ccccc2)NC(=O)c2ccccc2NC(=O)OCc2ccccn2)cc1 | 1.5 nM | 500 nM | –
25 | Cc1c(O)cccc1C(=O)N[C@@H](Cc1ccccc1)[C@@H](O)[C@@H](O)[C@H](Cc1ccccc1)NC(=O)c1ccccc1NC(=O)OCc1ccccn1 | 0.09 nM | 20 nM | –
26 | CCOC(=O)N[C@@H](C(=O)N[C@@H](Cc1ccccc1)[C@@H](O)C[C@H](Cc1ccccc1)NC(=O)c1ccccc1NC(=O)OCc1ccccn1)C(C)C | 0.03 nM | 7 nM | –
27 | CCOC(=O)N[C@H](C(=O)N[C@@H](Cc1ccccc1)[C@@H](O)C[C@H](Cc1ccccc1)NC(=O)c1ccccc1NC(=O)OCc1ccccn1)[C@@H](C)CC | 0.02 nM | 50 nM | –
28 | O=C(Nc1ccccc1C(=O)N[C@@H](Cc1ccccc1)C[C@H](O)[C@H](Cc1ccccc1)NC(=O)c1cccc(O)c1)OCc1ccccn1 | 0.85 nM | 300 nM | –
